Columns and labels:
bedstraw = assay: Test B pre/postemergence bedstraw; assay type: in vivo, Galium aparine
How it was run: (§1)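 Herbicidal effect was estimated by eye on a ten-point control scale after plants spent twelve to sixteen days in a greenhouse following soil or foliar treatment. Foliar sprays targeted plants at one to four leaves; all doses were formulated in a non-phytotoxic solvent with surfactant.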

blackgrass = assay: Test B pre/postemergence blackgrass; assay type: in vivo, Alopecurus myosuroides
How it was run: as §1

surinam grass = assay: Test B pre/postemergence surinam grass; assay type: in vivo, Brachiaria decumbens
How it was run: as §1

cocklebur = assay: Test B pre/postemergence cocklebur; assay type: in vivo, Xanthium strumarium; conditions: for Cocklebur plant response rating: scale of 0 to 10 where 0 is no effect and 10 is complete control
How it was run: as §1

corn = assay: Test B pre/postemergence corn; assay type: in vivo, Zea mays; conditions: for Corn plant response rating: scale of 0 to 10 where 0 is no effect and 10 is complete control
How it was run: as §1

giant foxtail = assay: Test B pre/postemergence giant foxtail; assay type: in vivo, Setaria faberii; conditions: for Giant foxtail plant response rating: scale of 0 to 10 where 0 is no effect and 10 is complete control
How it was run: as §1

morningglory = assay: Test B pre/postemergence morningglory; assay type: in vivo, Ipomoea hederacea; conditions: for Morningglory plant response rating: scale of 0 to 10 where 0 is no effect and 10 is complete control
How it was run: as §1

pigweed = assay: Test B pre/postemergence pigweed; assay type: in vivo, Amaranthus retroflexus; conditions: for Redroot pigweed plant response rating: scale of 0 to 10 where 0 is no effect and 10 is complete control
How it was run: as §1

rape = assay: Test B pre/postemergence rape; assay type: in vivo, Brassica napus; conditions: for Rape plant response rating: scale of 0 to 10 where 0 is no effect and 10 is complete control
How it was run: as §1

soybean = assay: Test B pre/postemergence soybean; assay type: in vivo, Glycine max; conditions: for Soybean plant response rating: scale of 0 to 10 where 0 is no effect and 10 is complete control
How it was run: as §1

sugar beet = assay: Test B pre/postemergence sugar beet; assay type: in vivo, Beta vulgaris; conditions: for Sugarbeets plant response rating: scale of 0 to 10 where 0 is no effect and 10 is complete control
How it was run: as §1

velvetleaf = assay: Test B pre/postemergence velvetleaf; assay type: in vivo, Abutilon theophrasti; conditions: for Velvetleaf plant response rating: scale of 0 to 10 where 0 is no effect and 10 is complete control
How it was run: as §1

wheat = assay: Test B pre/postemergence wheat; assay type: in vivo, Triticum aestivum; conditions: for Wheat plant response rating: scale of 0 to 10 where 0 is no effect and 10 is complete control
How it was run: as §1

wild oat = assay: Test B pre/postemergence wild oat; assay type: in vivo, Avena fatua; conditions: for Wild oats plant response rating: scale of 0 to 10 where 0 is no effect and 10 is complete control
How it was run: as §1

rice = assay: Test B flood test rice; assay type: in vivo, Oryza sativa; conditions: Pre-emergence
How it was run: (§2)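 Read-out is a visual response score from 0 (no effect) to 10 (complete control), assigned by comparison with untreated controls. Treatment was applied at the 2-leaf stage, and plants stayed in the greenhouse for twelve to sixteen days before scoring.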

smallflower flatsedge = assay: Test B flood test smallflower flatsedge; assay type: in vivo, Cyperus difformis; conditions: Pre-emergence
How it was run: as §2

[1] = Postemergence, Rate 125 g/ha, scale 0 to 10, 0 is no effect, 10 is complete control
[2] = Preemergence, Rate 62 g/ha, scale 0 to 10 (0 no effect, 10 complete control)
[3] = Preemergence, Rate 500 g/ha, scale of 0 to 10 where 0 is no effect and 10 is complete control
[4] = Rate 62 g/ha, Postemergence, scale of 0 to 10 where 0 is no effect and 10 is complete control
[5] = Rate 250 g/ha, Postemergence, scale of 0 to 10 where 0 is no effect and 10 is complete control
[6] = Rate 500 g/ha, Postemergence, scale 0 to 10, 0 no effect, 10 complete control
[7] = Preemergence, Rate 250 g/ha, scale of 0 to 10 where 0 is no effect and 10 is complete control
[8] = Rate 62 g/ha, flood test species, visual evaluation after twelve to sixteen days
[9] = Rate 125 g/ha, flood test species, scale 0 to 10 where 0 is no effect and 10 is complete control
[10] = Rate 250 g/ha, flood-test species, scale 0 to 10, 0 is no effect, 10 is complete control
[11] = Rate 500 g/ha, flood test species, scale 0 to 10 (0 no effect, 10 complete control)

## CC(C)N(C(=O)n1oc(=O)n(C2CCCCCC2)c1=O)c1ccccc1 [Compound 341]
bedstraw; [1]
  Plant response rating, Bedstraw: 0
bedstraw; [2]
  Plant response rating, Bedstraw: 0
bedstraw; Preemergence, Rate 125 g/ha
  Bedstraw plant response rating (0 to 10 scale): 0
bedstraw; [3]
  Bedstraw plant response rating: 2
bedstraw; [4]
  Bedstraw plant response rating: 0
bedstraw; [5]
  Plant response rating, Bedstraw: 4
bedstraw; [6]
  Plant response rating, Bedstraw: 8
blackgrass; [1]
  Plant response rating, Blackgrass: 0
blackgrass; [2]
  Plant response rating, Blackgrass: 0
blackgrass; Preemergence, Rate 125 g/ha
  Blackgrass plant response rating (0 to 10 scale): 2
blackgrass; [7]
  Blackgrass plant response rating: 6
blackgrass; [3]
  Blackgrass plant response rating: 7
blackgrass; [4]
  Blackgrass plant response rating: 0
blackgrass; [5]
  Plant response rating, Blackgrass: 2
blackgrass; [6]
  Plant response rating, Blackgrass: 2
Surinam grass; [1]
  Plant response rating, B. signalgrass: 0
Surinam grass; [2]
  Plant response rating, B. signalgrass: 0
Surinam grass; Preemergence, Rate 125 g/ha
  B. signalgrass plant response rating (0 to 10 scale, 0 is no effect, 10 is complete control): 0
Surinam grass; [7]
  B. signalgrass plant response rating: 0
Surinam grass; [3]
  B. signalgrass plant response rating: 0
Surinam grass; [4]
  B. signalgrass plant response rating: 0
Surinam grass; [5]
  Plant response rating, B. signalgrass: 0
Surinam grass; [6]
  Plant response rating, B. signalgrass: 2
cocklebur; [1]
  Plant response rating, Cocklebur: 0
cocklebur; [2]
  Plant response rating, Cocklebur: 0
cocklebur; Preemergence, Rate 125 g/ha
  Cocklebur plant response rating (0 to 10 scale): 0
cocklebur; Preemergence, Rate 250 g/ha
  Cocklebur plant response rating: 0
cocklebur; Preemergence, Rate 500 g/ha
  Cocklebur plant response rating: 0
cocklebur; Rate 62 g/ha, Postemergence
  Cocklebur plant response rating: 0
corn; [1]
  Plant response rating, Corn: 0
corn; [2]
  Plant response rating, Corn: 0
corn; Preemergence, Rate 125 g/ha
  Corn plant response rating (0 to 10 scale): 0
corn; Preemergence, Rate 250 g/ha
  Corn plant response rating: 0
corn; Preemergence, Rate 500 g/ha
  Corn plant response rating: 0
corn; Rate 62 g/ha, Postemergence
  Corn plant response rating: 0
corn; [6]
  Plant response rating, Corn: 0
Giant foxtail; [1]
  Plant response rating, Giant foxtail: 0
Giant foxtail; [2]
  Plant response rating, Giant foxtail: 9
Giant foxtail; Preemergence, Rate 125 g/ha
  Giant foxtail plant response rating (0 to 10 scale): 9
Giant foxtail; Preemergence, Rate 250 g/ha
  Giant foxtail plant response rating: 10
Giant foxtail; Preemergence, Rate 500 g/ha
  Giant foxtail plant response rating: 10
Giant foxtail; Rate 62 g/ha, Postemergence
  Giant foxtail plant response rating: 0
Giant foxtail; [6]
  Plant response rating, Giant foxtail: 2
morningglory; [1]
  Plant response rating, Morningglory: 7
morningglory; [2]
  Plant response rating, Morningglory: 0
morningglory; Preemergence, Rate 125 g/ha
  Morningglory plant response rating (0 to 10 scale): 0
morningglory; Preemergence, Rate 250 g/ha
  Morningglory plant response rating: 0
morningglory; Preemergence, Rate 500 g/ha
  Morningglory plant response rating: 0
morningglory; Rate 62 g/ha, Postemergence
  Morningglory plant response rating: 7
morningglory; [6]
  Plant response rating, Morningglory: 10
pigweed; [1]
  Plant response rating, Redroot pigweed: 0
pigweed; [2]
  Plant response rating, Redroot pigweed: 0
pigweed; Preemergence, Rate 125 g/ha
  Redroot pigweed plant response rating (0 to 10 scale): 0
pigweed; Preemergence, Rate 250 g/ha
  Redroot pigweed plant response rating: 0
pigweed; Preemergence, Rate 500 g/ha
  Redroot pigweed plant response rating: 8
pigweed; Rate 62 g/ha, Postemergence
  Redroot pigweed plant response rating: 0
pigweed; [6]
  Plant response rating, Redroot pigweed: 6
rape; [1]
  Plant response rating, Rape: 0
rape; [2]
  Plant response rating, Rape: 0
rape; Preemergence, Rate 125 g/ha
  Rape plant response rating (0 to 10 scale): 0
rape; Preemergence, Rate 250 g/ha
  Rape plant response rating: 0
rape; Preemergence, Rate 500 g/ha
  Rape plant response rating: 0
rape; Rate 62 g/ha, Postemergence
  Rape plant response rating: 0
rape; [6]
  Plant response rating, Rape: 2
soybean; [1]
  Plant response rating, Soybean: 2
soybean; [2]
  Plant response rating, Soybean: 0
soybean; Preemergence, Rate 125 g/ha
  Soybean plant response rating (0 to 10 scale): 0
soybean; Preemergence, Rate 250 g/ha
  Soybean plant response rating: 0
soybean; Preemergence, Rate 500 g/ha
  Soybean plant response rating: 0
soybean; Rate 62 g/ha, Postemergence
  Soybean plant response rating: 1
soybean; [6]
  Plant response rating, Soybean: 3
Sugar beet; [1]
  Plant response rating, Sugarbeets: 0
Sugar beet; [2]
  Plant response rating, Sugarbeets: 0
Sugar beet; Preemergence, Rate 125 g/ha
  Sugarbeets plant response rating (0 to 10 scale): 0
Sugar beet; Preemergence, Rate 250 g/ha
  Sugarbeets plant response rating: 0
Sugar beet; Preemergence, Rate 500 g/ha
  Sugarbeets plant response rating: 0
Sugar beet; Rate 62 g/ha, Postemergence
  Sugarbeets plant response rating: 0
Sugar beet; [6]
  Plant response rating, Sugarbeets: 0
velvetleaf; [1]
  Plant response rating, Velvetleaf: 0
velvetleaf; [2]
  Plant response rating, Velvetleaf: 0
velvetleaf; Preemergence, Rate 125 g/ha
  Velvetleaf plant response rating (0 to 10 scale): 0
velvetleaf; Preemergence, Rate 250 g/ha
  Velvetleaf plant response rating: 0
velvetleaf; Preemergence, Rate 500 g/ha
  Velvetleaf plant response rating: 2
velvetleaf; Rate 62 g/ha, Postemergence
  Velvetleaf plant response rating: 0
velvetleaf; [6]
  Plant response rating, Velvetleaf: 2
wheat; [1]
  Plant response rating, Wheat: 0
wheat; [2]
  Plant response rating, Wheat: 0
wheat; Preemergence, Rate 125 g/ha
  Wheat plant response rating (0 to 10 scale): 0
wheat; Preemergence, Rate 250 g/ha
  Wheat plant response rating: 0
wheat; Preemergence, Rate 500 g/ha
  Wheat plant response rating: 0
wheat; Rate 62 g/ha, Postemergence
  Wheat plant response rating: 0
wheat; [6]
  Plant response rating, Wheat: 0
Wild oat; [1]
  Plant response rating, Wild oats: 0
Wild oat; [2]
  Plant response rating, Wild oats: 0
Wild oat; Preemergence, Rate 125 g/ha
  Wild oats plant response rating (0 to 10 scale): 0
Wild oat; Preemergence, Rate 250 g/ha
  Wild oats plant response rating: 0
Wild oat; Preemergence, Rate 500 g/ha
  Wild oats plant response rating: 2
Wild oat; Rate 62 g/ha, Postemergence
  Wild oats plant response rating: 0
Wild oat; [6]
  Plant response rating, Wild oats: 3
rice; [8]
  Plant response rating, Rice (0 to 10 scale, 0 is no effect, 10 is complete control): 0
rice; [9]
  Rice plant response rating: 0
rice; [10]
  Rice plant response rating: 0
rice; [11]
  Rice plant response rating: 2
Smallflower flatsedge; [8]
  Plant response rating, S. Flatsedge (0 to 10 scale, 0 is no effect, 10 is complete control): 1
Smallflower flatsedge; [9]
  S. Flatsedge plant response rating: 4
Smallflower flatsedge; [10]
  S. Flatsedge plant response rating: 9
Smallflower flatsedge; [11]
  S. Flatsedge plant response rating: 9
